Assay results: patent publication US12084411B2, “Hinokitiol analogues, methods of preparing and pharmaceutical compositions thereof” (The Board of Trustees of the University of Illinois, priority 2018, dated 2024)

How the values were obtained:
DMT1-deficient MEL cells = experiment: Differentiation and hemoglobinization of DMT1-deficient MEL cells; format: cell-based, mouse; details: 1 μM, three days
Protocol: Differentiation of MEL Cells with DMSO (FIG. 3D) To perform differentiation experiments with MEL cells (39), the indicated MEL cells were diluted to 1×10^5 cells/mL in MEL Complete media containing 10 μM iron (III) citrate and 2% DMSO in the absence or presence of 1 μM hinokitiol or C2deOHino (added from 1000X stock in DMSO) in 12-well plates. Cells were then incubated at 37° C. for 72 hours unless otherwise noted.
Hemoglobinized MEL cells were quantified three days after DMSO induction through o-dianisidine staining similar to previously reported (74). Cells were centrifuged three days after induction and rinsed with PBS. The cells were then suspended in a solution containing 7.5 mM o-dianisidine, 900 mM H2O2, and 150 mM acetic acid in water at ˜1×10^6 cells/mL. Cells were then imaged on an AXIO Zoom V16 microscope to obtain color images. The number of stained cells were then quantified via ImageJ analysis and compared to the number of total cells in each image. To determine that hinokitiol requires DMSO induction for hemoglobinization, 2% DMSO was not added at the beginning of the experiment before a 72-hour incubation and o-dianisidine staining.
MEL cells were induced for differentiation as described above and incubated at 37° C. for 70 hours before addition of a saturated iron-transferrin (^55Fe2Tf) solution (40 nM final concentration from a 10 μM ^55Fe2Tf stock). The cells were incubated for an additional two hours. After completion, the cells were counted with a hemocytometer, the media was removed after centrifugation, the cells were rinsed with PBS (×3), and the cell suspension was diluted in scintillation cocktail and radioactivity was determined. […] The cells were incubated for an additional eight hours. After completion, the cells were counted with a hemocytometer, the media was removed after centrifugation, and the cells were rinsed with PBS (×3). The cells were then lysed with RIPA buffer, diluted with water, and heme was extracted using a 3:1 ethyl acetate:acetic acid solution. An aliquot of the organic extract was diluted in scintillation cocktail and radioactivity was determined. Radioactive levels were normalized per cell (counted by hemocytometer) relative to wild type (DS19) levels.
MEL cells were induced for differentiation as described above and incubated at 37° C. for 72 hours. After completion, the cells were counted with a hemocytometer, the media was removed after centrifugation, and cells were rinsed with PBS (×2). The cells were then lysed through repeated freeze/thaw cycles with water, and hemoglobin levels per 10^6 cells were determined as previously described (77) by determining the OD415 after centrifugation. Globin levels by western blot were determined after differentiation as described above. After incubation for 72 hours, cells were lysed and globin levels were determined by western blot as described above.

[1] = Iron efflux from liposomes using ferrozine; format: biochemical; details: for transport of ferrous and ferric iron across model liposomal membranes: 5 μM small molecule; for iron (III) efflux from POPC liposomes: 30 mM FeCl3 inside
Protocol: Iron (III) efflux from POPC liposomes was determined similar to previously reported (64). POPC liposomes were prepared as similarly reported (65) using 30 mM FeCl3, 62.5 mM citrate at pH=7.0 in 25 mM Mes/Tris buffer. External iron was removed by size exclusion chromatography using Sephadex G-50 and eluting with external buffer. External buffer consisted of 62.5 mM ascorbate at pH=7.0 in 25 mM Mes/Tris buffer. The liposomes were diluted to 1 mM phosphorus in this buffer. Ferrozine (Sigma 160601) was added (100X stock in external buffer) to a final concentration of 500 μM. Liposomal suspension was then transferred to a 96-well plate, and either DMSO or 5 μM hinokitiol, C2deOHino, deferiprone, or PIH (40X stock solution in DMSO) were added to initiate the experiment. The OD562 was determined every minute over the course of 2 hours using a plate-reader with continuous shaking at 30° C. to detect the relative amounts of external ferrozine-iron chelate at the indicated times. After 2 hours, liposomes were lysed with Triton-X to give 100% iron efflux.
Iron (II) efflux was performed as described above, however, the internal buffer alternatively consisted of 30 mM FeSO4, 62.5 mM ascorbate at pH=7.0 in 25 mM Mes/Tris buffer and Triton-X lysis was performed after 1 hour.
The rates of iron efflux with increasing concentrations of intraliposomal iron and/or hinokitiol were determined as described above using the indicated concentration of iron and hinokitiol. For the varying concentrations of iron, hinokitiol (10 μM) was added to the POPC liposomes, and the change in absorbance at 562 nm was determined over 2 hours. For the varying concentrations of hinokitiol, 30 mM intraliposomal iron was used as described above. The concentration of iron outside of liposomes was determined using the extinction coefficient for ferrozine-iron (27,900 M^−1 cm^−1) (66). This was used to determine the amount of iron released from liposomes at the indicated times using the total volume for each experiment. Rates of iron efflux were determined after one hour of hinokitiol treatment.

fet3Δftr1Δ yeast = experiment: Sustainability assay; format: cell-based, Saccharomyces cerevisiae; details: 10 μM hinokitiol, 10 μM FeCl3
Protocol: Sustainable hinokitiol-promoted growth restoration of fet3Δftr1Δ yeast was performed similar to previously reported (20) by inoculation of hinokitiol-rescued yeast from low iron SD-agar plates containing 10 μM hinokitiol and 10 μM FeCl3 into low iron SD liquid media containing 10 μM hinokitiol and 10 μM FeCl3, then streaking of the yeast suspension (diluted to OD600 of 0.1) onto agar plates. This process was repeated for >100 days. Continued reliance of fet3Δftr1Δ yeast growth on hinokitiol was observed, as removal of hinokitiol from the SD-agar plates led to no fet3Δftr1Δ yeast cell growth.

MEL = experiment: WST-8 toxicity in MEL cells; format: cell-based, mouse; details: MEL cells, three days, 1 μM
Protocol: (§1) Determination of small molecule-mediated toxicity in Caco-2, MEL, and/or J774 cells was performed according to manufacturer instructions using a WST-8 kit (Cayman Chemical 10010199) similar to previously reported (76) using a 1000× stock of the indicated small molecule in DMSO to give the indicated final concentration.

[2] = WST-8 toxicity in MEL cells; format: cell-based, mouse; details: mouse, wild type MEL cells; Wild Type MEL, WST-8 assay after ≥24 hours of incubation
Protocol: as §1

[3] = Rate of iron (III) reduction; format: physicochemical; details: 62.5 mM ascorbate buffer
Protocol: The rate of iron (III) reduction in the absence or presence of hinokitiol was determined using ferrozine to quantify the concentration of iron (II) similar to previously described (71). […] The absorbance at 562 nm, corresponding to Fe(ferrozine)3, was determined at the indicated time points.

shDMT1 Caco-2 monolayers = experiment: Imaging of cytosolic iron with calcein green in Caco-2 monolayers; format: cell-based, Human; details: 25 μM FeCl3, 1 hour
Protocol: Temporal live cell imaging of labile iron levels in shDMT1 Caco-2 monolayers was performed after staining of Caco-2 monolayers with calcein green-AM (5 μM) in the apical and basolateral liquid for 30 minutes in pH=7.4 DMEM. […] Final volume administered was 1.5 mL/kg for each mouse, correcting for individual body weight. […] Mice were humanely sacrificed by isoflurane overdose after 6 hours and blood was collected by cardiac puncture. Radioactivity was quantified by gamma counting and calculated as the percentage of gavaged dose (±SEM). Experiments were performed with 4 genotyped-matched mice/day; preliminary analysis determined there were no gender effects on uptake of ^59Fe after intragastric gavage; mixed genders were used in the experiments shown.

SMILES	55Fe uptake (DMT1-deficient MEL cells)	55Fe-heme incorporation (DMT1-deficient MEL cells)	hemoglobinization (DMT1-deficient MEL cells)	transport of ferrous and ferric iron across model liposomal membranes [1]	iron (III) efflux from POPC liposomes [1]	time over which growth restoration is sustained (fet3Δftr1Δ yeast) [days]	observable toxicity (MEL)	EC90 [2] [µM]	reduction of iron (III) in a reducing environment [3]	cytosolic labile iron (calcein green) (shDMT1 Caco-2 monolayers)
CC(C)c1cccc(=O)cc1 [C2deOHino, C2-deoxy hinokitiol]	no effect	no effect	no effect	minimal transport	no efflux up to 100 μM					
CC(C)c1cccc(=O)c(O)c1 [hinokitiol]	restored	restored	restored	autonomously transports both ferrous and ferric iron	dose- and temperature-dependently promoted iron (III) efflux	> 100	without observable toxicity	24	slowed	increased labile iron up to 5 μM
